In assay [1] the target is T1, M351T Bcr-abl (Ba/F3 cells) (Homo sapiens, UniProt P00519, M351T).
T1 construct: expressed in transfected cells; host or cells: Ba/F3 (murine pro-B cells); the other entry of the earlier key: BCR (P11274, Breakpoint cluster region protein)
Nature of the assay: Proliferation of Ba/F3 cells expressing M351T Bcr-abl. It counts as cell-based. The method, then:
(§1) 32D-p210 cells are plated into 96 well TC plates at a density of 15,000 cells per well. 50 μL of two fold serial dilutions of the test compound (Cmax is 40 μM) are added to each well (STI571 is included as a positive control). After incubating the cells for 48 hours at 37° C., 5% CO2, 15 μL of MTT (Promega) is added to each well and the cells are incubated for an additional 5 hours. The optical density at 570 nm is quantified spectrophotometrically and IC50 values, the concentration of compound required for 50% inhibition, determined from a dose response curve.
(§2) Compounds of the invention are tested for their antiproliferative effect on Ba/F3 cells expressing either wild type or the mutant forms of BCR-Abl (G250E, E255V, T315I, F317L, M351T) that confers resistance or diminished sensitivity to STI571. The antiproliferative effect of these compounds on the mutant-BCR-Abl expressing cells and on the non transformed cells were tested at 10, 3.3, 1.1 and 0.37 μM as described above (in media lacking IL3). The IC50 values of the compounds lacking toxicity on the untransformed cells were determined from the dose response curves obtained as describe above.

A further assay concerns the target T2, Flt3(h) (Homo sapiens, UniProt P36888).
T2 construct: purchased Upstate
Kind of assay: Upstate KinaseProfiler radio-enzymatic filter binding assay. It counts as biochemical. As to conditions: read-out: percentage inhibition Flt3(h). The method, then: (§3) Compounds of the invention are assessed for their ability to inhibit individual members of the kinase panel. The compounds are tested in duplicates at a final concentration of 10 μM following this generic protocol. Note that the kinase buffer composition and the substrates vary for the different kinases included in the “Upstate KinaseProfiler™” panel. Kinase buffer (2.5 μL, 10×—containing MnCl2 when required), active kinase (0.001-0.01 Units; 2.5 μL), specific or Poly(Glu4-Tyr) peptide (5-500 μM or 0.01 mg/ml) in kinase buffer and kinase buffer (50 μM; 5 μL) are mixed in an eppendorf on ice. A Mg/ATP mix (10 μL; 67.5 (or 33.75) mM MgCl2, 450 (or 225) μM ATP and 1 μCi/μl [γ-^32P]-ATP (3000 Ci/mmol)) is added and the reaction is incubated at about 30° C. for about 10 minutes. The reaction mixture is spotted (20 μL) onto a 2 cm×2 cm P81 (phosphocellulose, for positively charged peptide substrates) or Whatman No. 1 (for Poly (Glu4-Tyr) peptide substrate) paper square. The assay squares are washed 4 times, for 5 minutes each, with 0.75% phosphoric acid and washed once with acetone for 5 minutes. The assay squares are transferred to a scintillation vial, 5 ml scintillation cocktail are added and ^32P incorporation (cpm) to the peptide substrate is quantified with a Beckman scintillation counter. Percentage inhibition is calculated for each reaction.

For the next assay, the target named is T3, c-RAF(h) (Homo sapiens, UniProt P04049).
T3 construct: purchased Upstate
The assay is described as above. The assay is classed as biochemical. As to conditions: read-out: percentage inhibition c-RAF(h). How it is done:
as §3

The next assay deals with T4, SAPK4(h) (Homo sapiens, UniProt O15264).
T4 construct: purchased Upstate
Described as above. The assay is classed as biochemical. As to conditions: read-out: percentage inhibition SAPK4(h). The method, then:
as §3

The target of a further assay is T5, PKD2(h) (Homo sapiens, UniProt Q9BZL6).
T5 construct: purchased Upstate
The assay is described as above. The assay is classed as biochemical. As to conditions: read-out: percentage inhibition PKD2(h). The method, then:
as §3

Another assay concerns the target T6, IKKα(h) (Homo sapiens, UniProt O15111).
T6 construct: purchased Upstate
Described as above. The assay is classed as biochemical. As to conditions: read-out: percentage inhibition IKKα(h). The method, then: as §3

Another assay addresses T7, Abl(T315L) (Homo sapiens, UniProt P00519, T315I).
T7 construct: purchased Upstate
The assay is described as above. As to conditions: read-out: percentage inhibition Abl(T315L). It counts as biochemical. The method, then: as §3

The target of another assay is T8, PKCα(h) (Homo sapiens, UniProt P17252).
T8 construct: purchased Upstate
The description is as above. As to conditions: read-out: percentage inhibition PKCα(h). The assay is classed as biochemical. The method, then: as §3

The target of a further assay is T9, FGFR3 (Homo sapiens, UniProt P22607).
T9 construct: if the value comes from the Ba/F3-TEL-FGFR3 test; If it comes from the purified enzyme, only the vendor's tag
Kind of assay: FGFR3 (Enzymatic Assay). It counts as biochemical. The method, then:
Kinase activity assay with purified FGFR3 (Upstate) is carried out in a final volume of 10 μL containing 0.25 μg/mL of enzyme in kinase buffer (30 mM Tris-HCl pH7.5, 15 mM MgCl2, 4.5 mM MnCl2, 15 μM Na3VO4 and 50 μg/mL BSA), and substrates (5 μg/mL biotin-poly-EY(Glu, Tyr) (CIS-US, Inc.) and 3 μM ATP). Two solutions are made: the first solution of 5 μl contains the FGFR3 enzyme in kinase buffer was first dispensed into 384-format ProxiPlate® (Perkin-Elmer) followed by adding […] of compounds dissolved in DMSO, then […] of second solution contains the substrate (poly-EY) and ATP in kinase buffer was added to each wells. The reactions are incubated at room temperature for one hour, stopped by adding 10 μL of HTRF detection mixture, which contains 30 mM Tris-HCl pH7.5, 0.5 M KF, 50 mM ETDA, 0.2 mg/mL BSA, 15 μg/mL streptavidin-XL665 (CIS-US, Inc.) and 150 ng/mL cryptate conjugated anti-phosphotyrosine antibody (CIS-US, Inc.). After one hour of room temperature incubation to allow for streptavidin-biotin interaction, time resolved florescent signals are read on Analyst GT (Molecular Devices Corp.). IC50 values are calculated by […] analysis of the percentage inhibition of each compound at 12 concentrations (1:3 dilution from 50 μM to 0.28 nM).

In another assay the target is T10, PDGFR-β (Homo sapiens, UniProt P09619).
T10 construct: fused on or other part: P41212 (Transcription factor ETV6)
Kind of assay: PDGFRβ (Cellular Assay), Ba/F3-Tel-PDGFRβ proliferation. It counts as cell-based. As to conditions: read-out: IC50 for PDGFR-β.

In assay [2] the target is T11, G250E Bcr-abl (Ba/F3 cells) (Homo sapiens, UniProt P00519, G250E).
T11 construct: expressed in transfected cells; host or cells: Ba/F3 (murine pro-B cells); the other entry of the earlier key: BCR (P11274, Breakpoint cluster region protein)
Nature of the assay: Proliferation of Ba/F3 cells expressing G250E Bcr-abl. The assay is classed as cell-based. The method, then: as §1, §2

The target in assay [3] is T12, F317L Bcr-abl (Ba/F3 cells) (Homo sapiens, UniProt P00519, F317L).
T12 construct: expressed in transfected cells; host or cells: Ba/F3 (murine pro-B cells); the other entry of the earlier key: BCR (P11274, Breakpoint cluster region protein)
Kind of assay: Proliferation of Ba/F3 cells expressing F317L Bcr-abl. The assay is classed as cell-based. How it is done: as §1, §2

The target in assay [4] is T13, T315I Bcr-abl (Ba/F3 cells) (Homo sapiens, UniProt P00519, T315I).
T13 construct: expressed in transfected cells; host or cells: Ba/F3 (murine pro-B cells); the other entry of the earlier key: BCR (P11274, Breakpoint cluster region protein)
Kind of assay: Proliferation of Ba/F3 cells expressing T315I Bcr-abl. The assay is classed as cell-based. How it is done: as §1, §2

In assay [5] the target is T14, wild type Bcr-abl (Ba/F3 cells) (Homo sapiens, UniProt P00519).
T14 construct: expressed in transfected cells; host or cells: Ba/F3 (murine pro-B cells); the other entry of the earlier key: BCR (P11274, Breakpoint cluster region protein)
Nature of the assay: Proliferation of Ba/F3 cells expressing wild type Bcr-abl. The assay is classed as cell-based. How it is done:
as §1, §2

As usually defined, the IC50 is the concentration at which inhibition is half-maximal. A higher IC50 goes with lower potency. For orientation: inhibition means the percentage by which the read-out fell short of the control.

T9 sequence (P22607 whole entry): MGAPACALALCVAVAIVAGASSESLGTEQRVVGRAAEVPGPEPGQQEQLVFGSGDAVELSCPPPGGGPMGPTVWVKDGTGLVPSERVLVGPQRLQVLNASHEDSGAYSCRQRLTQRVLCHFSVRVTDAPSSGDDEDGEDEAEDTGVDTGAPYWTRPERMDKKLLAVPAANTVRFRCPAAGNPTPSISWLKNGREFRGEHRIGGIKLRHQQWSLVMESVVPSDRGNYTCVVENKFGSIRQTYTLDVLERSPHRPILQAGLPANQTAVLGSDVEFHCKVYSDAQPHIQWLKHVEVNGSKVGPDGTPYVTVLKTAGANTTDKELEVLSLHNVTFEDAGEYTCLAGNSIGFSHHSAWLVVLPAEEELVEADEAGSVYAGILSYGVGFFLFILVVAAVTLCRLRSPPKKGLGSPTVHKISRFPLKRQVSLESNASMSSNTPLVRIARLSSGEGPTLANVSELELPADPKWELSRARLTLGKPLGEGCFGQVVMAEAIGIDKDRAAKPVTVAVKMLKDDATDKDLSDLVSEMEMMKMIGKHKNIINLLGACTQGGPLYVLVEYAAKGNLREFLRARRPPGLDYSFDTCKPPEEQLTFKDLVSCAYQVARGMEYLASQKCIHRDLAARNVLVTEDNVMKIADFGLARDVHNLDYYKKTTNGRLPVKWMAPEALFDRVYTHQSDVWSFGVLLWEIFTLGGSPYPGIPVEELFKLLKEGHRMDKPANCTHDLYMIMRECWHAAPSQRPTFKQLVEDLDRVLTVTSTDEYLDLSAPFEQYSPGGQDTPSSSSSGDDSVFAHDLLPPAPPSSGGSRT
T3 sequence (P04049 whole entry): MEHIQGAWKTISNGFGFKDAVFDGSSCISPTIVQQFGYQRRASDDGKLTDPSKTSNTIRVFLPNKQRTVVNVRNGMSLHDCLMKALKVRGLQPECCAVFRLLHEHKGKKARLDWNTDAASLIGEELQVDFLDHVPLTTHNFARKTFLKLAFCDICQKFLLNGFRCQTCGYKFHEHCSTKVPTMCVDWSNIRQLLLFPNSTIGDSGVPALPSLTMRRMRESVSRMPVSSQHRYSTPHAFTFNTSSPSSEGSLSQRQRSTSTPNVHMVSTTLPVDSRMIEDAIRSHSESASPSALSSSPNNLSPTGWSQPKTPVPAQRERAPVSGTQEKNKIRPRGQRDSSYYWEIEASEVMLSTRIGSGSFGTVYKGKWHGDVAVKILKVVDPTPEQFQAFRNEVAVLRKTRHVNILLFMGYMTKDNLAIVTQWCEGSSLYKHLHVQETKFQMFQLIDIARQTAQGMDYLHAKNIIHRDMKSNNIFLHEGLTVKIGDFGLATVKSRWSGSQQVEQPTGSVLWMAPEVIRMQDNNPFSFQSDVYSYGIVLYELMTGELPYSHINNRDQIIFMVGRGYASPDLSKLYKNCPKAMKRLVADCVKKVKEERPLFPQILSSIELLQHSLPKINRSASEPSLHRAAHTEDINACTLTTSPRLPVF
T5 sequence (Q9BZL6 whole entry): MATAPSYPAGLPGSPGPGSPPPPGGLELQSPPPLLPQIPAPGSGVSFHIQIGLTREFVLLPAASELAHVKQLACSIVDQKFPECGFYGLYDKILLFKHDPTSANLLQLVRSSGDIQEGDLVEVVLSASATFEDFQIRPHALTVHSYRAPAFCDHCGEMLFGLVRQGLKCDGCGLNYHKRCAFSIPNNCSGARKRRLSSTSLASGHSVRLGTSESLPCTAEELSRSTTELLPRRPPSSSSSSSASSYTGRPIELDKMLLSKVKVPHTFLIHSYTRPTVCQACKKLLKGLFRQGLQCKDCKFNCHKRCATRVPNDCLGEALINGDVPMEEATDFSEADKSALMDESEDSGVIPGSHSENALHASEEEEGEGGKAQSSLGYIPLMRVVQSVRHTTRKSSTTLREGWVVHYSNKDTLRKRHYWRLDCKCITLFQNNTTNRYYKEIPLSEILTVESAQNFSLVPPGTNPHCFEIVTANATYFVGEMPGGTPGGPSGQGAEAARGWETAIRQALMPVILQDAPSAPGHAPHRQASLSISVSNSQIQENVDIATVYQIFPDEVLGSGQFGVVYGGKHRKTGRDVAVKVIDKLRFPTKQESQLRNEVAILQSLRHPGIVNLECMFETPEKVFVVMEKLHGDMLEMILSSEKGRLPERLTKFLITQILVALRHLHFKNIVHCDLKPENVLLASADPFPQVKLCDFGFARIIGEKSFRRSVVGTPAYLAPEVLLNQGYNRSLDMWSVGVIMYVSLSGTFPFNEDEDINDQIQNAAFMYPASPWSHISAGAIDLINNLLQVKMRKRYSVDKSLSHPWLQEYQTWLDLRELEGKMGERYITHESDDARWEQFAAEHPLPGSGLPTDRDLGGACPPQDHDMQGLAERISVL
T10 sequence (P09619 600-962 limits assumed, change not shown): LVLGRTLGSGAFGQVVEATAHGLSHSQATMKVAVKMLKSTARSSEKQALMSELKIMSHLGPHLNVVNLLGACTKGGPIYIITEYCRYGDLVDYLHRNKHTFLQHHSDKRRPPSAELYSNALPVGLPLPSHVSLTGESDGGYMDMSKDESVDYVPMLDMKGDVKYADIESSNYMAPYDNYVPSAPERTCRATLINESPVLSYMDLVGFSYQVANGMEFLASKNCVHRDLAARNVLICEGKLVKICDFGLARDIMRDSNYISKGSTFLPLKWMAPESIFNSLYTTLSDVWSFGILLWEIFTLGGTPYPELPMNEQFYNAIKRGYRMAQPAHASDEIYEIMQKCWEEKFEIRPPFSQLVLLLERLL
T4 sequence (O15264 whole entry): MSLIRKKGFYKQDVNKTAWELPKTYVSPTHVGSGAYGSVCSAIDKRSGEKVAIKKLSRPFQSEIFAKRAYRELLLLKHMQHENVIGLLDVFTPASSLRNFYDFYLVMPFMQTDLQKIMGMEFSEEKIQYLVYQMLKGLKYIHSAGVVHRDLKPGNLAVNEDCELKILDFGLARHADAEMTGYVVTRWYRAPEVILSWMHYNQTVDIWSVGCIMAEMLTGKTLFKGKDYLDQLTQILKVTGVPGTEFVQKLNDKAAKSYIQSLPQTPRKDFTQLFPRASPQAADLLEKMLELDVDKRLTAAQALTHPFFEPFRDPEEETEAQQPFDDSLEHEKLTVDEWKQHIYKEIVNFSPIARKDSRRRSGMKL
T6 sequence (O15111 whole entry): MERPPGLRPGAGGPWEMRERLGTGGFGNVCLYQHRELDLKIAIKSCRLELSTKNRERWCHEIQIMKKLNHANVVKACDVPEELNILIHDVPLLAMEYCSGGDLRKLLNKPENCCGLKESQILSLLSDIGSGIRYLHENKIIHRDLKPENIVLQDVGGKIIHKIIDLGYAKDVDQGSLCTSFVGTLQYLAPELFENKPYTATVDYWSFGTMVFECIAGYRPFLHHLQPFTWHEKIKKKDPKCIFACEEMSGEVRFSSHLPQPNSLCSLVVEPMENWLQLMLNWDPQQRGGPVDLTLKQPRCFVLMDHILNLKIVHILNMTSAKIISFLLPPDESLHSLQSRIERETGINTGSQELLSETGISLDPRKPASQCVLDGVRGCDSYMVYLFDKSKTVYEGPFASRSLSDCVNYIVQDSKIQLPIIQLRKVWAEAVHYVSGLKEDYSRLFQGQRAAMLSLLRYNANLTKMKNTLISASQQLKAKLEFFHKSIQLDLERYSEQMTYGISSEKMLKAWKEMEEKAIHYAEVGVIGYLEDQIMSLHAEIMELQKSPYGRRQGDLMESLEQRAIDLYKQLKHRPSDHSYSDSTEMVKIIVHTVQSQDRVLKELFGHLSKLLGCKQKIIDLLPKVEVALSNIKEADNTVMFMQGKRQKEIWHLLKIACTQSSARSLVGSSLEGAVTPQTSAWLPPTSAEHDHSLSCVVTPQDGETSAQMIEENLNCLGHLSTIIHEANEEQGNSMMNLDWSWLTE

With `CCN1CCN(Cc2ccc(NC(=O)c3ccc(C)c(NC(=O)N(C)c4ncnc5[nH]ccc45)c3)cc2C(F)(F)F)CC1` [Example 4, N-[4-(4-Ethyl-piperazin-1-ylmethyl)-3-trifluoromethyl-phenyl]-4-methyl-3-[3-methyl-3-(7H-pyrrolo[2,3-d]pyrimidin-4-yl)-ureido]-benzamide], the IC50 in assay [1] was under 5 nM; against FGFR3 it was 36 nM; in [2] it was under 5 nM; in assay [3] it was under 5 nM; in assay [4], under 5 nM; in [5], under 5 nM. Further, the inhibition at 10 µM was found to be 96% at Flt3(h); 97% on c-RAF(h); 82% at SAPK4(h); 94% at PKD2(h); 98% at IKKα(h); 98% on Abl(T315L). Also, the inhibition at 10 µM on PKCα(h) amounted to 61%. For the same compound, at PDGFR-β, the GI50 stood at 3.8 nM.

These data come from patent publication US8183248B2, “Substituted pyrrolo[2,3-d]pyrimidines and compositions as protein kinase inhibitors” (IRM LLC, priority 2005, dated 2012).
